The values that follow come from US7396839B2, “Crystalline forms of gatifloxacin” (Teva Pharmaceuticals USA, Inc., priority 2002, dated 2008).

The nature of data set [1]: storage at ambient temperature and pressure (crystalline form conversion). It is filed as physicochemical.
The conditions of data set [2]: among the forms of U.S. Pat. No. 6,413,969; cited from earlier work.
The conditions of data set [3]: room temperature; among the forms of U.S. Pat. No. 6,413,969; cited from earlier work.
The conditions of data set [4]: compared with the hemihydrate; cited from earlier work.
Data set [5] in a line: heating of the crystalline form at about 50° C. It is filed as physicochemical. The note with it: heating at about 50° C.
Setting [6] is: prolonged (e.g. 2 months) storage at ambient temperature and pressure.

Structures are written as SMILES.

Regarding `COc1c(N2CCNC(C)C2)c(F)cc2c(=O)c(C(=O)O)cn(C3CC3)c12` (racemic) [form L, (±) 1-cyclopropyl-6-fluoro-1,4-dihydro-8-methoxy-7-(3-methyl-1-piperazinyl)-4-oxo-3-quinolinecarboxylic acid], in data set [1] (setting [6]), the “crystalline form after prolonged storage” value is “converts to form Ω”. Take `COc1c(N2CCNC(C)C2)c(F)cc2c(=O)c(C(=O)O)cn(C3CC3)c12` (stereo not shown) [pentahydrate, gatifloxacin]: the thermodynamic stability entry in data set [2] is given as “most thermodynamically stable form”. Besides, in data set [3], the aqueous solubility entry is listed as “lowest”. For the molecule `COc1c(N2CCNC(C)C2)c(F)cc2c(=O)c(C(=O)O)cn(C3CC3)c12` (racemic) [form M, (±) 1-cyclopropyl-6-fluoro-1,4-dihydro-8-methoxy-7-(3-methyl-1-piperazinyl)-4-oxo-3-quinolinecarboxylic acid], the “crystalline form after prolonged storage” value in data set [1] (setting [6]) was “converts to form T2RP (hemihydrate)”. On to `COc1c(N2CCNC(C)C2)c(F)cc2c(=O)c(C(=O)O)cn(C3CC3)c12` (stereo not shown) [sesquihydrate, gatifloxacin], for which the stability in manufacturing result in data set [4] is reported as “more stable”. With `COc1c(N2CCNC(C)C2)c(F)cc2c(=O)c(C(=O)O)cn(C3CC3)c12` (racemic) [form P, (±) 1-cyclopropyl-6-fluoro-1,4-dihydro-8-methoxy-7-(3-methyl-1-piperazinyl)-4-oxo-3-quinolinecarboxylic acid], in data set [1] (prolonged (e.g. 1 month) storage at ambient temperature and pressure), the “crystalline form after prolonged storage” value was “converts to gatifloxacin sesquihydrate”. In addition, in data set [5], the “crystalline form after heating” value is given as “results in gatifloxacin form T1”.
